Assays:
[1] = target: T1, amylase derived from human saliva (human S type α-amylase) (Homo sapiens, UniProt P0DUB6); experiment: Hydrolysis rate, S type α-amylase; assay type: biochemical; details: relative to hydrolysis rate of 3 mM G5CNP defined as 10, substrate 7-9 times the Km
T1 sequence (P0DUB6 16-511): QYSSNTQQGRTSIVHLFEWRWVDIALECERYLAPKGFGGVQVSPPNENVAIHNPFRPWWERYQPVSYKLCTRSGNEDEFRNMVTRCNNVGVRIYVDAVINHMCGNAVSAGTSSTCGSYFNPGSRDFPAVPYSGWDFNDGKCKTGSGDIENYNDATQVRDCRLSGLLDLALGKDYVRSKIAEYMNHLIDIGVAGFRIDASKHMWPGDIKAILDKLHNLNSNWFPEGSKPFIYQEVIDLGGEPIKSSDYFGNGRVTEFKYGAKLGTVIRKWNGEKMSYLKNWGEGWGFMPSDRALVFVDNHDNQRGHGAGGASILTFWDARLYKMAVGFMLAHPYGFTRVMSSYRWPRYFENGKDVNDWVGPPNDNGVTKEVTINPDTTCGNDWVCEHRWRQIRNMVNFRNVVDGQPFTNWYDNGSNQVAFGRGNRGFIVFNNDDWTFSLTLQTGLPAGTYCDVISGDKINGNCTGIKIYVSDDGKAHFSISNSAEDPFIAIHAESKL
Description: (§1) The coupled enzyme solution was prepared in the same manner as in the step (2) of Example 5.
(§2) Commercially available human P type and S type α-amylase solutions having a concentration of ca. 500 IU/l were prepared in the same manner as in the step (3) of Example 5.
(§3) With 250 μl of the α-amylase solution prepared in (iii) was mixed 1.0 ml of the coupled enzyme. The mixture was heated at 37° C. for 1 minute, and 2.0 ml of the substrate solution was added with stirring to the mixture. The variation of absorbance at 400 nm was measured for 2 minutes after heating the mixture at 37° C. for 2 minutes. The hydrolysis rate of each substrate, namely the variable absorbance per unit time was expressed with the relative values to the hydrolysis rate of 3 mM G5CNP (the reference substrate) which is defined as 10.
(§4) S: amylase derived from human saliva.

[2] = target: T1, amylase derived from human saliva (human S type α-amylase); experiment: Patterns of action (hydrolyzed product by HPLC), S type α-amylase; assay type: biochemical; details: 0.5 mM substrate, 37° C., 20 minutes
Description: as §2
(§5) To 1.0 ml of the substrate solution was added 100 μl of the α-amylase solution prepared in the paragraph (iii) of the aforementioned hydrolysis rate, and the mixture, after stirred sufficiently, was subjected to reaction at 37° C. for 20 minutes. The hydrolyzed product was determined quantitatively by the high performance liquid chromatography of the reaction mixture.
as §4

Solubility in water = assay type: physicochemical; details: 20 g of substrate added to 100 ml of water
Description: To 100 ml of water was added 20 g of a substrate, and the dissolution state was observed.

[3] = target: T2, amylase derived from human pancreatic juice (human P type α-amylase) (Homo sapiens, UniProt P04746); experiment: Hydrolysis rate, P type α-amylase; assay type: biochemical; details: relative to hydrolysis rate of 3 mM G5CNP defined as 10, substrate 7-9 times the Km
T2 sequence (P04746 16-511): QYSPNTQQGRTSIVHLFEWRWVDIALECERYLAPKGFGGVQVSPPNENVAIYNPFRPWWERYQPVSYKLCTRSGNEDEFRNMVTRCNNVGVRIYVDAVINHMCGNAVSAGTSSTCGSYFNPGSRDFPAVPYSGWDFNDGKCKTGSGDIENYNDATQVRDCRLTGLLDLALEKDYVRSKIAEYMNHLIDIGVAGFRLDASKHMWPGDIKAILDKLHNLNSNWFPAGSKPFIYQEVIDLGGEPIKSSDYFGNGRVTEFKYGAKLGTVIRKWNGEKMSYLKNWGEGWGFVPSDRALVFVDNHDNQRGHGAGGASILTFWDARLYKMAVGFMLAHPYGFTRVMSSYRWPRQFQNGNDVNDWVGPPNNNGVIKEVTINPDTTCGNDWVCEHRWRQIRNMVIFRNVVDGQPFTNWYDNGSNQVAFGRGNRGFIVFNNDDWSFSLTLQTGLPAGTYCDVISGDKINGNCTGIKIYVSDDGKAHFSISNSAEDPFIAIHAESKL
Description: as §1, §2, §3
(§6) P: amylase derived from human pancreatic juice, […]

[4] = test system: coupled enzyme (α-glucosidase derived from yeast and β-glucosidase derived from almond); experiment: Coupled enzyme resistance test; assay type: biochemical; details: 37° C., pH 7.0, FIG. 3 / FIG. 4; for hydrolysis by the coupled enzyme (in words): 3.0 mM substrate solution, α-glucosidase 1053 units/ml, β-glucosidase 15.5 units/ml, 400 nm for 5 minutes; for stability in a measuring system (in words): coupled enzyme system
Description: 2-chloro-4-nitrophenyl 5^5 -eno-4^5 -O-mesyl-β-D-maltopentaoside (molecular weight: 1044; referred to hereinafter as substrate of the present invention) obtained in Example 1 was dissolved in a 50 mM phosphate buffer (pH=7.0) containing 40 mM NaCl and 2 mM MgCl2 to a concentration of 3.0 mM.
2-chloro-4-nitrophenyl β-D-maltopentaoside (molecular weight: 984; referred to hereinafter as reference substrate) obtained in the conventional method was dissolved in a 50 mM phosphate buffer (pH=7.0) containing 40 mM NaCl and 2 mM MgCl2 to a concentation of 3.0 mM.
Coupled enzyme solution was prepared by dissolving a commercially available α-glucosidase derived from yeast and a commercially available β-glucosidase derived from almond in a 50 mM phosphate buffer (pH=7.0) containing 40 mM NaCl and 2 mM MgCl2 to a concentration of 1053 units/ml and 15.5 units/ml, respectively. As the commercially available α- and β-glucosidases, those available from Toyobo Co., Ltd. were used.
After 1.0 ml of a coupled enzyme solution was heated at 37° C. for 5 minutes, it was mixed sufficiently with 2.0 ml of the substrate solution of the present invention or the reference substrate solution and heated at 37° C. for 3 minutes. Then, variations of the absorbance at a wavelength of 400 nm were measured for 5 minutes.
The test was carried out in the same manner as in Example 9 except that 2-chloro-4-nitrophenyl 6^5 -azido-6^5 -deoxy-β-D-maltopentaoside (molecular weight: 1009; referred to hereinafter as the substrate of the present invention) obtained in Example 3 was employed as the substrate (a). In FIG. 4, marks Δ show the plottings of the substrate solution (a) and the marks .quadrature. show the plottings of the substrate solution (b).

[5] = target: T2, amylase derived from human pancreatic juice (human P type α-amylase); experiment: Patterns of action (hydrolyzed product by HPLC), P type α-amylase; assay type: biochemical; details: 0.5 mM substrate, 37° C., 20 minutes
Description: as §2, §5, §6

Hydrolysis rate [1] | Patterns of action, hydrolyzed product G2CNP [2] [mol %] | Patterns of action, hydrolyzed product G3CNP [2] [mol %] | Patterns of action, hydrolyzed product G4CNP [2] [mol %] | Patterns of action, hydrolyzed product GCNP [2] [mol %] | Solubility in water (Solubility in water) | Hydrolysis rate [3] | hydrolysis by the coupled enzyme (in words) [4] | stability in a measuring system (in words) [4] | Patterns of action, hydrolyzed product G2CNP [5] [mol %] | Patterns of action, hydrolyzed product G3CNP [5] [mol %] | Patterns of action, hydrolyzed product G4CNP [5] [mol %] | Patterns of action, hydrolyzed product GCNP [5] [mol %] | Structure (SMILES)
10 | 100 | 0 | 0 | 0 | Good | 10 | not hydrolyzed | stable | 97 | 3 | 0 | 0 | [N-]=[N+]=NC[C@H]1O[C@H](O[C@H]2[C@H](O)[C@@H](O)[C@@H](O[C@H]3[C@H](O)[C@@H](O)[C@@H](O[C@H]4[C@H](O)[C@@H](O)[C@@H](O[C@H]5[C@H](O)[C@@H](O)[C@H](Oc6ccc([N+](=O)[O-])cc6Cl)O[C@@H]5CO)O[C@@H]4CO)O[C@@H]3CO)O[C@@H]2CO)[C@H](O)[C@@H](O)[C@@H]1O [ADG5CNP, 2-chloro-4-nitrophenyl 6^5-azido-6^5-deoxy-β-D-maltopentaoside]
10 | 97 | 0 | 0 | 3 | Good | 10 | not hydrolyzed | stable | 97 | 0 | 0 | 3 | C=C1O[C@H](O[C@H]2[C@H](O)[C@@H](O)[C@@H](O[C@H]3[C@H](O)[C@@H](O)[C@@H](O[C@H]4[C@H](O)[C@@H](O)[C@@H](O[C@H]5[C@H](O)[C@@H](O)[C@H](Oc6ccc([N+](=O)[O-])cc6Cl)O[C@@H]5CO)O[C@@H]4CO)O[C@@H]3CO)O[C@@H]2CO)[C@H](O)[C@@H](O)[C@@H]1OS(C)(=O)=O [EMG5CNP, 2-chloro-4-nitrophenyl 5^5-eno-4^5 -O-mesyl-β-D-maltopentaoside]

— patent publication US5302514A, “Maltooligoside derivative, reagent for determining α-amylase activity containing the same as effective ingredient and a process for determining the α-amylase activity using same” (Kikkoman Corporation, priority 1991, dated 1994)
